Experimental data from patent publication US12036226B2, “Methods of treating subjects having diabetes with chronic kidney disease” (Poxel SA, priority 2018, dated 2024).
Where two headings read alike, the source gives them in different places.

Assay: Phase 1 study of pharmacokinetics and safety of imeglimin in subjects with renal impairment compared to normal renal function
Format: in vivo, human
Conditions: for concentration at 8 day / Vd/F / Tmax / Cmax / half-life / AUC / AUC(0-t) / CL renal: human, po; for concentration at 8 day / Vd/F / Tmax / Cmax / half-life / AUC / AUC(0-t): plasma; for Vd/F: read-out: Vz/F; for Tmax: median, read-out: tmax; for AUC: read-out: AUC0-τ; for CL renal: urine; for difference in exposure vs normal subjects: Day 8
Protocol: An open-label, parallel-group, multi-center, multiple oral dose study to investigate the pharmacokinetics of imeglimin in subjects with renal impairment compared to subjects with normal renal function was completed.
In this study, a total of 51 subjects received imeglimin at the daily dose of 1000 mg, administered either as 1000 mg QD (once a day) or 500 mg bid (twice a day) during 8 days. […] Twenty-four control subjects with normal renal function were matched to mild and moderate (10 receiving QD and 8 receiving bid regimen) and to severe (6 receiving bid regimen) renal impaired subjects. Measurement of the urine to plasma ratio of creatinine using 24 hours urine sampling was calculated (CLCrea).
Imeglimin was administered in the morning time during 8 consecutive days in the group of subjects receiving 1000 mg once a day and in the morning and evening time during 7 consecutive days followed by a morning administration of 500 mg in the morning time on Day 8 in the group of subjects receiving 500 mg twice a day. Morning administrations on Days 1 and 8 were performed on a fasted state, after a 10 hours overnight fasting and during 4 hours after imeglimin administration.
Inclusion Criteria: For subjects with normal renal functions: CLCrea>80 mL/min based on calculation using 24-hrs sampling on day −2. For subjects with impaired renal function: CLCrea 50 to 80 mL/min for subjects with mild renal impairment, 30 to <50 mL/min for subjects with moderate renal impairment, and <30 mL/min for subjects with severe renal impairment based on calculation using 24-hrs sampling on day −2.
Pharmacokinetic parameters included apparent volume of distribution during the terminal phase following extravascular administration (Vz/F), area under the curve of the plasma concentration as a function of time (AUC0-t), the maximum observed concentration (Cmax), the time to maximum concentration (tmax), the plasma half-life (t1/2), the total body clearance of drug from plasma following extravascular administration (CL/F), and other parameters.
The urinary excretion parameters of imeglimin in subjects with differing degrees of renal impairment following QD or bid oral doses of imeglimin on day 8 are summarized in Table 3 and Table 4. Parameters measured include amount of unchanged drug excreted in urine as a function of time (Ae0-t), renal clearance (CLR), and the amount of unchanged drug excreted in urine during one dosing interval (Ae0-τ), and the percentage of administered dose excreted in urine during one dosing interval (fe0-τ).
For the evaluation of safety and tolerability of multiple oral doses of 1000 mg imeglimin QD (i.e. a total dose of 8000 mg imeglimin) or 500 mg imeglimin BID (i.e. a total dose of 7500 mg imeglimin), laboratory tests (hematology, clinical chemistry, urinalysis), determination of vital signs, ECG recordings, questioning of AEs and physical examinations were performed. […] The incidence of AEs observed within the course of the study was low. Overall 31 out of 51 subjects reported 54 treatment emergent AEs. Of these, only 15 were judged as likely related to the study drug. The majority (39 AEs) were assessed as unlikely related. Based on these low incidence no clear differences between the dose regimens and between the renal impairment groups can be shown.

[1] = 500 mg, 500 mg bid oral, Day 8, Part 1 normal renal function (N = 8), geometric mean
[2] = 500 mg, 500 mg bid oral, Day 8, Part 2 CKD Stage 4 (severe renal impairment; N = 5), geometric mean
[3] = 500 mg, 500 mg bid oral, Day 8, Part 2 normal renal function (N = 6), geometric mean
[4] = 1000 mg, 1000 mg QD oral, Day 8, CKD Stage 3 (moderate renal impairment; N = 6), geometric mean
[5] = 1000 mg, 1000 mg QD oral, Day 8, CKD stage 2 (mild renal impairment; N = 5), geometric mean
[6] = 1000 mg, 1000 mg QD oral, Day 8, normal renal function (N = 8), geometric mean
[7] = 1000 mg, 1000 mg QD oral, Day 8, normal renal function (N = 10), geometric mean

Question: Which concentration at 8 day (500 mg, 500 mg bid oral, Day 8, Part 1 CKD Stage 3 (moderate renal impairment; N = 6), geometric mean, read-out: Cav) does the source give for `C[C@H]1N=C(N(C)C)N=C(N)N1` [imeglimin, (6R)—N^2, N^2,6-trimethyl-3,6-dihydro-1,3,5-triazine-2,4-diamine] here?
Answer: 1430 ng/mL

Question: And the Vd/F (500 mg, 500 mg bid oral, Day 8, Part 1 CKD Stage 3 (moderate renal impairment; N = 6), geometric mean)?
Answer: 922 L

Question: And the Tmax (500 mg, 500 mg bid oral, Day 8, Part 1 CKD Stage 3 (moderate renal impairment; N = 6))?
Answer: 3.5 h

Question: What about the Cmax [1] of the same compound?
Answer: 1030 ng/mL

Question: And the half-life [1]?
Answer: 13.2 h

Question: What about the AUC [1] of the same compound?
Answer: 7390 ng·h/mL

Question: And the concentration at 8 day (500 mg, 500 mg bid oral, Day 8, Part 1 normal renal function (N = 8), geometric mean, read-out: Cav)?
Answer: 616 ng/mL

Question: What about the concentration at 8 day (500 mg, 500 mg bid oral, Day 8, Part 1 normal renal function (N = 8), geometric mean, read-out: Cmin) of the same compound?
Answer: 202 ng/mL

Question: And the Vd/F [1]?
Answer: 1290 L

Question: And the Tmax (500 mg, 500 mg bid oral, Day 8, Part 1 normal renal function (N = 8))?
Answer: 3.5 h

Question: What about the Cmax [2] of the same compound?
Answer: 2860 ng/mL

Question: What about the half-life [2] of the same compound?
Answer: 17.6 h

Question: What about the AUC [2] of the same compound?
Answer: 24800 ng·h/mL

Question: And the concentration at 8 day (500 mg, 500 mg bid oral, Day 8, Part 2 CKD Stage 4 (severe renal impairment; N = 5), geometric mean, read-out: Cav)?
Answer: 2070 ng/mL

Question: What about the Vd/F [2] of the same compound?
Answer: 511 L

Question: And the Tmax (500 mg, 500 mg bid oral, Day 8, Part 2 CKD Stage 4 (severe renal impairment; N = 5))?
Answer: 3.5 h

Question: And the Cmax [3]?
Answer: 998 ng/mL

Question: What about the half-life [3] of the same compound?
Answer: 15 h

Question: What about the AUC [3] of the same compound?
Answer: 6970 ng·h/mL

Question: What about the concentration at 8 day (500 mg, 500 mg bid oral, Day 8, Part 2 normal renal function (N = 6), geometric mean, read-out: Cav) of the same compound?
Answer: 581 ng/mL

Question: And the Vd/F [3]?
Answer: 1550 L

Question: What about the Tmax (500 mg, 500 mg bid oral, Day 8, Part 2 normal renal function (N = 6)) of the same compound?
Answer: 3.75 h

Question: What about the AUC(0-t) [4] of the same compound?
Answer: 29100 ng·h/mL

Question: And the Cmax [4]?
Answer: 2570 ng/mL

Question: What about the half-life [4] of the same compound?
Answer: 23.4 h

Question: What about the concentration at 8 day (1000 mg, 1000 mg QD oral, Day 8, CKD Stage 3 (moderate renal impairment; N = 6), geometric mean, read-out: Cav) of the same compound?
Answer: 1210 ng/mL

Question: And the concentration at 8 day (1000 mg, 1000 mg QD oral, Day 8, CKD Stage 3 (moderate renal impairment; N = 6), geometric mean, read-out: Cmin)?
Answer: 335 ng/mL

Question: What about the Vd/F [4] of the same compound?
Answer: 1160 L

Question: And the Tmax (1000 mg, 1000 mg QD oral, Day 8, CKD Stage 3 (moderate renal impairment; N = 6))?
Answer: 5 h

Question: And the AUC(0-t) [5]?
Answer: 20100 ng·h/mL

Question: And the Cmax [5]?
Answer: 2050 ng/mL

Question: What about the half-life [5] of the same compound?
Answer: 15 h

Question: What about the concentration at 8 day (1000 mg, 1000 mg QD oral, Day 8, CKD stage 2 (mild renal impairment; N = 5), geometric mean, read-out: Cav) of the same compound?
Answer: 838 ng/mL

Question: And the concentration at 8 day (1000 mg, 1000 mg QD oral, Day 8, CKD stage 2 (mild renal impairment; N = 5), geometric mean, read-out: Cmin)?
Answer: 178 ng/mL

Question: And the Vd/F [5]?
Answer: 1070 L

Question: And the Tmax (1000 mg, 1000 mg QD oral, Day 8, CKD stage 2 (mild renal impairment; N = 5))?
Answer: 4 h

Question: And the half-life [6]?
Answer: 16.4 h

Question: What about the Vd/F [6] of the same compound?
Answer: 1570 L

Question: And the AUC(0-t) [7]?
Answer: 15400 ng·h/mL

Question: What about the Cmax [7] of the same compound?
Answer: 1750 ng/mL

Question: And the concentration at 8 day (1000 mg, 1000 mg QD oral, Day 8, normal renal function (N = 10), geometric mean, read-out: Cmin)?
Answer: 115 ng/mL

Question: What about the Tmax (1000 mg, 1000 mg QD oral, Day 8, normal renal function (N = 10)) of the same compound?
Answer: 4 h

Question: What about the CL renal (500 mg, 500 mg bid oral, Day 8, CKD Stage 2 (mild renal impairment) (N = 4), geometric mean (CV %), read-out: CLR) of the same compound?
Answer: 323 mL/min

Question: And the CL renal (500 mg, 500 mg bid oral, Day 8, CKD Stage 3 (moderate renal impairment) (N = 6), geometric mean (CV %), read-out: CLR)?
Answer: 193 mL/min

Question: What about the CL renal (500 mg, 500 mg bid oral, Day 8, CKD Stage 4 (severe renal impairment) (N = 5), geometric mean (CV %), read-out: CLR) of the same compound?
Answer: 140 mL/min

Question: What about the CL renal (500 mg, 500 mg bid oral, Day 8, normal renal function (N = 6), geometric mean (CV %), read-out: CLR) of the same compound?
Answer: 548 mL/min

Question: What about the CL renal (500 mg, 500 mg bid oral, Day 8, normal renal function (N = 8), geometric mean (CV %), read-out: CLR) of the same compound?
Answer: 501 mL/min

Question: What about the CL renal (1000 mg, 1000 mg QD oral, Day 8, CKD Stage 2 (mild renal impairment), N = 2, min, max, read-out: CLR (renal clearance)) of the same compound?
Answer: 388 to 522 mL/min

Question: What about the CL renal (1000 mg, 1000 mg QD oral, Day 8, CKD Stage 3 (moderate renal impairment) (N = 6), geometric mean, read-out: CLR (renal clearance)) of the same compound?
Answer: 197 mL/min

Question: And the CL renal (1000 mg, 1000 mg QD oral, Day 8, normal renal function (N = 10), geometric mean, read-out: CLR (renal clearance))?
Answer: 418 mL/min

Question: And the “difference in exposure vs normal subjects” value (shortened to “difference in exposure”) (mild renal impairment)?
Answer: up to 1.5 fold

Question: What about the “difference in exposure” value (moderate renal impairment) of the same compound?
Answer: ≤ 2.3 fold

Question: And the “AEs assessed as unlikely related” value (of 54 treatment emergent AEs)?
Answer: 39

Question: What about the “AEs judged as likely related to the study drug” value (of 54 treatment emergent AEs) of the same compound?
Answer: 15

Question: What about the “Steady-state attained by” value (repeated dosing of 1000 mg QD and 500 mg bid) of the same compound?
Answer: ≤ 6 days

Question: And the “decrease in renal clearance vs normal subjects” value (severe renal impairment)?
Answer: ≤ 74%

Question: And the “decrease in total oral body clearance vs normal subjects” value (severe renal impairment)?
Answer: up to 72%

Question: And the “difference in exposure” value (severe renal impairment)?
Answer: up to 3.6 fold

Question: And the “general safety and tolerability assessment” value (total daily dose of 1000 mg over 8 days)?
Answer: good or very good tolerability
